Experimental data reported in patent publication US6734204B1, “Serotonin potentiation by oleamide analogs” (The Scripps Research Institute, priority 1998, dated 2004).
“Also recorded” adds a separate entry of the source. Read-outs that look alike come from different tables or passages of the source.

How the values were obtained:
rat 5-HT2A receptor [1] = target: T1, rat 5-HT2A receptor (Rattus norvegicus, UniProt P14842); experiment: R-SAT assay, NIH 3T3 cells expressing the rat 5-HT2A receptor, β-galactosidase readout; assay type: cell-based; settings: agent 500 nM, 100 nM 5-HT, compared with oleamide
T1 construct: host or cells: NIH 3T3 cells, cotransfected with the beta-galactosidase gene
Protocol: (§1) Activation of the 5-HT2A or 5-HT1A receptors in 5-HT dependent cell lines results in cell prolification measured by the levels of -galactosidase produced.
(§2) An extensive series of agents was tested at 500 nM for their ability to potentiate the rat 5-HT2A or human 5-HT1A receptor response to 100 nM 5-HT. […] The analog screening was conducted with the rat 5-HT2A assay and a subset of analogs was also examined in the human 5-HT1A assay. The results reported are normalized to a 100% potentiation by oleamide for the ease of direct comparisons.
(§3) Methods. The assays were conducted with R-SAT kits (Receptor Technologies Inc, Winooski, Vt.) containing NIH 3T3 cells expressing the rat 5-HT2A receptor (Suter et al. (1987) Fundam. Appl. Toxicol. 9, 785-794; Pritchett et al. (1988) EMBO J 7, 4135-4140) or RAT-1 cells expressing the human 5-HT1A receptor (Lam et al. (1996) Biochem. Biophys. Res. Commun. 219, 853-858; Kobilka et al. (1987) Nature 329, 75-79) cotransfected with the -galactosidase gene and were performed according to the procedures provided (Messier et al. (1995) Pharmacol. Toxicol. 76, 308-311; Brann et al. (1996) J. Biomol. Screening 1, 43-45). The cells in Dulbecco modified Eagle's medium containing serotonin (100 nM) and the analogs (500 nM) were incubated in a humidified 5% CO2 incubator at 37° C. for 4 or 5 days for the 5-HT2A and 5-HT1A transfected cells, respectively. Levels of -galactosidase were measured after incubation with the chromogenic substrate o-nitrophenyl- -D-galactopyranoside (20) at 30° C. in a humidified incubator for a recommended period of time and the absorbance was measured at 405 nm. The results were normalized to 100% for oleamide (rel. % potentiation) for the ease of comparison and are the average of 2-8 determinations.

human 5-HT1A receptor [2] = target: T2, human 5-HT1A receptor (Homo sapiens, UniProt P08908); experiment: R-SAT assay, RAT-1 cells expressing the human 5-HT1A receptor, β-galactosidase readout; assay type: cell-based; settings: agent 500 nM, 100 nM 5-HT, compared with oleamide
T2 construct: host or cells: RAT-1 cells, cotransfected with the beta-galactosidase gene
T2 sequence (P08908 1-422): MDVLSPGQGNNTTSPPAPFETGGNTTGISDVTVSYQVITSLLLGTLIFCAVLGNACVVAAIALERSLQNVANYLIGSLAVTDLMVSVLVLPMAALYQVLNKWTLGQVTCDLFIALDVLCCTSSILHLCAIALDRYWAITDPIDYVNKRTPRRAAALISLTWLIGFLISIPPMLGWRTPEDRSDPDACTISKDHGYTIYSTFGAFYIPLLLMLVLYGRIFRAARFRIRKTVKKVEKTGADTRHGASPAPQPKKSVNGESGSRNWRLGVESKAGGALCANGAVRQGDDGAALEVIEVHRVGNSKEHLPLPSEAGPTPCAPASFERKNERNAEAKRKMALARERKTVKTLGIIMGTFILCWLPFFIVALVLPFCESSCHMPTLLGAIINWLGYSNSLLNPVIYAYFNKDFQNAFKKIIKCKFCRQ
Protocol: as §1, §2, §3

human 5-HT1A receptor [3] = target: T2, human 5-HT1A receptor; experiment: as above; assay type: cell-based; settings: for potentiation: 100 nM 5-HT
rat 5-HT2A receptor [4] = target: T1, rat 5-HT2A receptor; experiment: R-SAT assay, NIH 3T3 cells expressing the rat 5-HT2A receptor, β-galactosidase readout; assay type: cell-based; settings: for potentiation response: 100 nM oleamide
5-HT7 receptor = target: T3, 5-HT7 receptor (Homo sapiens, UniProt P34969); settings: cited from earlier work
T3 construct: host or cells: HeLa cells, transfected

5-HT2A receptor = target: T4, 5-HT2A receptor (Homo sapiens, UniProt P28223); settings: 100 nM serotonin, 100 nM oleamide; Huidobro-Toro et al. 1996; cited from earlier work
T4 construct: host or cells: frog oocytes, transfected

[5] = target: T5, 5-HT3 ion-gated channel receptor (Homo sapiens, UniProt P46098); settings: 100 nM serotonin, 100 nM oleamide; cited from earlier work
T5 construct: host or cells: frog oocytes, transfected
T5 sequence (P46098 24-478): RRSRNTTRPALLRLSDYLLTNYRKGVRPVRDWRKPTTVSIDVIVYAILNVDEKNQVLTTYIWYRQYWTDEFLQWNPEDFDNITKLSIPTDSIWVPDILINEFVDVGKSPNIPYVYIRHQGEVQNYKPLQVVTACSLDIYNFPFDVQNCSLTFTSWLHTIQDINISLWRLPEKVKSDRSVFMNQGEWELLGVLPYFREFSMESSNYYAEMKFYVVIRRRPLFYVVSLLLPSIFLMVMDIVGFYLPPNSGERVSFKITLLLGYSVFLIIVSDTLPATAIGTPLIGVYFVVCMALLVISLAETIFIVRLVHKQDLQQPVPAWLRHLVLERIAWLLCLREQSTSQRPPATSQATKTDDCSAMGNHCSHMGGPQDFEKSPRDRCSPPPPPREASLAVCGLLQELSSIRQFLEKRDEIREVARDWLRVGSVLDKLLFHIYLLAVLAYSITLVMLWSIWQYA

5-HT2A receptors = target: T6, 5-HT2A receptors (Rattus norvegicus, UniProt P14842); settings: 100 nM serotonin, 100 nM oleamide; Thomas et al. 1997; cited from earlier work
T6 construct: rat pituitary P11 cells expressing the 5-HT2 receptor; endogenous in cells; host or cells: rat pituitary P11 cells

5-HT2C receptor = target: T7, 5-HT2C receptor (Homo sapiens, UniProt P28335); settings: cited from earlier work
T7 construct: host or cells: frog oocytes, transfected
T7 sequence (P28335 33-458): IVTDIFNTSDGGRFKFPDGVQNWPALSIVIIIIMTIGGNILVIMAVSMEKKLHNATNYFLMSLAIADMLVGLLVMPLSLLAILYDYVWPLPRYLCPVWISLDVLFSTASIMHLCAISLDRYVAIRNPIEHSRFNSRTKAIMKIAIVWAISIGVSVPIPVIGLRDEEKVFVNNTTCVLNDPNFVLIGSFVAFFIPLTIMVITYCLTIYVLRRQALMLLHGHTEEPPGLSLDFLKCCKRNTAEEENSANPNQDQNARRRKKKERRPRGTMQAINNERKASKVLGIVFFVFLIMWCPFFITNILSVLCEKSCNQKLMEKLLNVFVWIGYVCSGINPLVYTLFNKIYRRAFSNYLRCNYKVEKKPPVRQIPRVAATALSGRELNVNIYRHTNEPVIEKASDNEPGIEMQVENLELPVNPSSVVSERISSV

FAAH = settings: cited from earlier work

T1 sequence (P14842 whole entry): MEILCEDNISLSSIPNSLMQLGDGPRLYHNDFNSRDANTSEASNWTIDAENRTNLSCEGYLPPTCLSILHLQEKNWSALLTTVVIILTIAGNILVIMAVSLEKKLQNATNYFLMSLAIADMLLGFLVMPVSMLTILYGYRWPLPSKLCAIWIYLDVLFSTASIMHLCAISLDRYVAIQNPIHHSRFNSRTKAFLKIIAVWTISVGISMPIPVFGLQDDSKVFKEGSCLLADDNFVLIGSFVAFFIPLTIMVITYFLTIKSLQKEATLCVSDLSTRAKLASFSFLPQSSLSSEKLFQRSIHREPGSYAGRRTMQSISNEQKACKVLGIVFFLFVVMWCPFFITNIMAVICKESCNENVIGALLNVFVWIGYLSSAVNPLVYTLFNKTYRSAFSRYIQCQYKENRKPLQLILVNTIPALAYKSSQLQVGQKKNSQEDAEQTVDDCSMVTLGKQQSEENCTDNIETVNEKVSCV
T3 sequence (P34969 whole entry): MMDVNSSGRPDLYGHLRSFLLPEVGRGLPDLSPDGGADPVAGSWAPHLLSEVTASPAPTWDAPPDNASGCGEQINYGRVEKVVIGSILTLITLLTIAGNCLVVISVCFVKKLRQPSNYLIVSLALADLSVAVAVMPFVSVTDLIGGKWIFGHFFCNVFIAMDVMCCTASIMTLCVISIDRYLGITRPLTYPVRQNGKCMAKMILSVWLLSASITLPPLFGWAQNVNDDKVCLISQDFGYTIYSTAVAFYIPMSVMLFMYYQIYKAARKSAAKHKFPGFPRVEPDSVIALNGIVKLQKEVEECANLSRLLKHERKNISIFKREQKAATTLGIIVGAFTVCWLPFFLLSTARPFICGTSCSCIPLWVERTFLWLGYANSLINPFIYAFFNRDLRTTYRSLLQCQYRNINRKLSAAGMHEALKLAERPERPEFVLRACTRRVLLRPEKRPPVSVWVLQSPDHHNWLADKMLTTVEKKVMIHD
T4 sequence (P28223 whole entry): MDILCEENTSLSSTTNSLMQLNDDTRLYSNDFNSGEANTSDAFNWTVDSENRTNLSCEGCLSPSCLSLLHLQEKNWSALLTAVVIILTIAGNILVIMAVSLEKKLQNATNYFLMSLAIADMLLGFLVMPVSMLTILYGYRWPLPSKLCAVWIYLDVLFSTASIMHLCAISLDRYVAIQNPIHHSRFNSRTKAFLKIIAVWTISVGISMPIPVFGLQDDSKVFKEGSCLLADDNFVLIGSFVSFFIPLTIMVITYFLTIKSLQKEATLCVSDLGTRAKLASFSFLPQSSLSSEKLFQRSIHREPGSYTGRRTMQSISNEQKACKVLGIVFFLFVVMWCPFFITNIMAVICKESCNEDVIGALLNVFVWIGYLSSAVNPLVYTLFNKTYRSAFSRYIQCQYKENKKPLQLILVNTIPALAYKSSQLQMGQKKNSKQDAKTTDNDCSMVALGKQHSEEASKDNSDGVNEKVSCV
T6 sequence (P14842 whole entry): as the sequence (P14842 whole entry) above

SMILES | potentiation of the 5-HT2A receptor response (in words) (rat 5-HT2A receptor [1]) | potentiation of the 5-HT1A receptor response (in words) (human 5-HT1A receptor [2]) | further results
CCCCCCCC/C=C\CCCCCCCCOCC(CO)OC(C)=O (stereo not drawn) [1-oleyl-2-acetylglycerol] | weakly inhibited | – | –
CCCCCCCC/C=C\CCCCCCC(C)(C)C(N)=O [2,2-dimethyloleamide] | potent inhibitors | – | –
CCCC/C=C\CCCCCCCC(N)=O [14:1^9, Myristoleamide] | – | more effective on the 5-HT1A receptor than 5-HT2A | –
CCCCCC/C=C\CCCCCCCC(N)=O [16:1^9, Palmitoleamide] | – | approaching the potency of oleamide | –
CCCCCCCCCCCCCCCCCC(N)=O [18:0, stearamide] | no observable potentiation; also recorded: ineffective at potentiating | less effective than oleamide, albeit not inactive | –
CCCCCCCC/C=C/CCCCCCCC(N)=O [18:1^9-trans, Elaidamide] | no observable potentiation; also recorded: ineffective at potentiating | less effective than oleamide, albeit not inactive | –
CCCCC/C=C\C/C=C\CCCCCCCC(N)=O [18:2^9,12, Linoleamide] | – | approaching the potency of oleamide | –
CC/C=C\C/C=C\C/C=C\CCCCCCCC(N)=O [18:3^6,9,12, linolenamide] | more effective but still less potent | – | –
CCCCCCCCCCCCCC/C=C\CCCC(N)=O [20:1^5] | – | – | potentiation of the 5-HT2A receptor response (in words) (rat 5-HT2A receptor [1]; listed as 20:1^9): inactivity; potentiation of the 5-HT2A receptor response (in words) (rat 5-HT2A receptor [1]; listed as 20:1^13): modest activity
CCCCCCCC/C=C\CCCCCCCCCCCCCC(N)=O [24:1^9, Nervonamide] | modest activity | – | –
CCCCC/C=C\C/C=C\C/C=C\C/C=C\CCCC(N)=O [Arachidonamide] | ineffective | – | potentiation of the 5-HT2A receptor response (in words) (rat 5-HT2A receptor [1]; listed as arachidonamide): less active or ineffective
CCCCCCCCC#CCCCCCCCC(N)=O [Compound 2, 9-octadecynamide] | nearly equipotent with oleamide | – | –
CCCCCCCC/C=C\CCCCCCCC(=O)NCC(=O)O [N-oleyl glycine, N-Oleoyl glycine] | – | weak potentiator | –
CCCCCCCCC=CCCCCCCCC(=O)N(C)C [NMe2 tertiary amide] | maximum effect | – | –
CCCCC/C=C\C/C=C\C/C=C\C/C=C\CCCC(=O)NCCO [anandamide, reference compound] | weakly inhibitory; also recorded: less active or ineffective | found to potentiate | –
CCCCCCCC/C=C\CCCCCCCC(=O)NC1CC1 [cyclopropyl amide] | uniquely effective at inhibiting; also recorded: inactive or inhibitory | effective at potentiating | –
CCCCCCCCC=CCCCCCCCC(=O)NC(C)C [isopropyl amide] | inactive or inhibitory | effective at potentiating | –
CCCCCCCC/C=C\CCCCCCCC(N)=O [oleamide, cis-9-ocatadecenamide] | most effective | – | potentiation (human 5-HT1A receptor [3]; 100 nM oleamide): 370%; potentiation (human 5-HT1A receptor [3]; 1 μM oleamide): 560%; lowest concentrations producing a measurable effect (human 5-HT1A receptor [3]; with 5-HT): 1 to 10 nM; effect of treatment alone (human 5-HT1A receptor [3]; without 5-HT): no effect; potentiation response (rat 5-HT2A receptor [4]; 100 nM 5-HT): 165%; potentiation response (rat 5-HT2A receptor [4]; 1 μM 5-HT): 170%; potentiation at higher concentration (rat 5-HT2A receptor [4]; 1 μM oleamide): no additional potentiation; concentration giving maximal response (rat 5-HT2A receptor [4]; assayed at 100 nM or 1 μM 5-HT): 100 nM; effect of treatment alone (rat 5-HT2A receptor [4]; without 5-HT): no effect; action at the 5-HT7 receptor (5-HT7 receptor; alone): weak agonist; action at the 5-HT7 receptor (5-HT7 receptor; in the presence of serotonin): unsurmountable antagonist; potentiation of 5-HT2A (5-HT2A receptor): 260%; effect on 5-HT3 receptor [5]: no effect; potentiation of 5-HT2A (5-HT2A receptors): 228%; potentiation of 5-HT2C (5-HT2C receptor; 100 nM serotonin, 100 nM oleamide): 365%; concentration of maximal potentiation (5-HT2C receptor): 100 nM; lowest concentration at which potentiation was observed (5-HT2C receptor): 1 nM
CCCCCCCC/C=C\CCCCCCCC(=O)O [oleic acid, Oleic acid, reference compound] | did not provide a comparable potentiation | better tolerated | –
CCCCCCCC/C=C\CCCCCCCC=O [oleyl aldehyde] | – | – | inhibition of FAAH (in words) (FAAH): potent inhibitors
CCCCCCCC/C=C\CCCCCCCC(=O)NCCO [oleyl ethanolamide] | less active or ineffective | found to potentiate | –
CCCCCCCC/C=C\CCCCCCCC(=O)NCCCO [oleyl propanolamide] | – | equally effective | –
